Calls of active or inactive are those of the source.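 How the source made its calls: active means mean IC50 below 20 µM in each of the two panels, so potent in both; inactive means the rest.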 Some results are limits rather than exact numbers.

The assay deals with Neuropilin-1 (Homo sapiens) (UniProt O14786). Kind of assay: NRP-1 b1b2 CendR peptide binding inhibitors, dose response, biochemical, FP and AlphaScreen panel (AID 651650). Conditions: NRP-1 b1b2 / RPARPAR peptide binding, FP or AlphaScreen. A general note: In Alpha technology, singlet oxygen from a donor bead excites a nearby acceptor bead.
Sequence of Neuropilin-1 (Homo sapiens) (O14786 whole entry, looked up): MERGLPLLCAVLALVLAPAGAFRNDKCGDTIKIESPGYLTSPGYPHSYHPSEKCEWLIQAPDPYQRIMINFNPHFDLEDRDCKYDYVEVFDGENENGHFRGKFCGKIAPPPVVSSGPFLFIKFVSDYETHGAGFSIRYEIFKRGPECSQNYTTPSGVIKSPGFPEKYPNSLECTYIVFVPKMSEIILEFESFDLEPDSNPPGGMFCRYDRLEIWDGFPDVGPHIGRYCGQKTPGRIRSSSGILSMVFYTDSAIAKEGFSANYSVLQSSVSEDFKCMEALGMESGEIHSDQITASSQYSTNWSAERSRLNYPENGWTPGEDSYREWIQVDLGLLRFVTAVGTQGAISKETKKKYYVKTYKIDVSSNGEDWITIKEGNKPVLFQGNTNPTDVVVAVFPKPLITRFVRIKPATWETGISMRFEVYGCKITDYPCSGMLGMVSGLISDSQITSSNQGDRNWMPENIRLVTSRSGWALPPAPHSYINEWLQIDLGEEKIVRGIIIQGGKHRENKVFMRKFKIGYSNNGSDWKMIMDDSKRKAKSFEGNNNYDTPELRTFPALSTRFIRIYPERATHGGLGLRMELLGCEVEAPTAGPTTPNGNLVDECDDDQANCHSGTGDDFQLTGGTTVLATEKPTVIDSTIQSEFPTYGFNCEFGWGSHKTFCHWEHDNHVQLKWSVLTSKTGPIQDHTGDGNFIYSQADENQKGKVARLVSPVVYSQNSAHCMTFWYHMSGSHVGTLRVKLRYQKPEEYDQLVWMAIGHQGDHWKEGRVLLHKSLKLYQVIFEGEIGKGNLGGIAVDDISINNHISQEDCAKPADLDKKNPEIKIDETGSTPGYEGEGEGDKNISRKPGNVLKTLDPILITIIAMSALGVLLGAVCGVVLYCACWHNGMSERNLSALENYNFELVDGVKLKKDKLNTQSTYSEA
[1] abbreviates: AlphaScreen, run 1, individual panel run IC50.
[2] abbreviates: FP, run 1, individual panel run IC50.
Where [3] appears, read: FP, run 2, individual panel run IC50.

For the compound `CC(C)C1=C2CCCCC2NC(=O)N1` (stereo not given), the IC50 is, setting by setting: (AlphaScreen, mean of runs) > 100 µM (inactive); under setting [1], above 100 µM; (FP, mean of runs) > 95 µM (inactive); under setting [2], above 95 µM; under setting [3], above 95 µM.

For the compound `COc1c2ccc(C(=O)NCc3cc(C(F)(F)F)cc(C(F)(F)F)c3)cc2nn1C`, the IC50 was > 100 µM (inactive) (AlphaScreen, mean of runs); above 100 µM under setting [1]; > 95 µM (inactive) (FP, mean of runs); above 95 µM under setting [2]; above 95 µM under setting [3].

For `COc1cc2oc(=O)ccc2cc1[C@@H](O)[C@@H]1OC(C)(C)OC1(C)C`, the IC50 runs as follows: (AlphaScreen, mean of runs) > 100 µM (inactive); under setting [1], above 100 µM; (FP, mean of runs) > 95 µM (inactive); under setting [2], above 95 µM; under setting [3], above 95 µM.

On to `Oc1ccccc1-c1ccn[nH]1`, for which the IC50 is > 100 µM (inactive) (AlphaScreen, mean of runs); above 100 µM under setting [1]; > 95 µM (inactive) (FP, mean of runs); above 95 µM under setting [2]; above 95 µM under setting [3].

As to `Cn1cnc2cc(NC(=O)c3ccco3)ccc21`, the 50% inhibitory concentration (IC50) is 18.5 µM (AlphaScreen, mean of runs); 18.5 µM under setting [1]; > 95 µM (inactive) (FP, mean of runs); above 95 µM under setting [2]; above 95 µM under setting [3].

For `COc1ccc(CCNC(=O)c2c(O)c3cccc4c3n(c2=O)CC4)cc1OC`, the IC50 is, setting by setting: (AlphaScreen, mean of runs) > 100 µM (inactive); under setting [1], above 100 µM; (FP, mean of runs) > 95 µM (inactive); under setting [2], above 95 µM; under setting [3], above 95 µM.

On to `CC1CCN(C(=O)c2[nH]cnc2C(=O)NCc2ccc(CNC(=O)OC(C)(C)C)cc2)CC1`, for which the IC50 (AlphaScreen, mean of runs) is 12.9 µM; the IC50 under setting [1] turned out to be 12.9 µM; the IC50 (FP, mean of runs) was > 95 µM (inactive); the IC50 under setting [2] is above 95 µM; the IC50 under setting [3] is above 95 µM.

Take `Cc1ccc(C2(O)CCN3CCCCC32)cc1` (stereo not given): the IC50 by setting is: (AlphaScreen, mean of runs) > 100 µM (inactive); under setting [1], above 100 µM; (FP, mean of runs) > 95 µM (inactive); under setting [2], above 95 µM; under setting [3], above 95 µM.

`COc1ccc(C(=O)N2CCC(C)(C(=O)NS(=O)(=O)C3CC3)C2)cc1F` (stereo not given): the IC50 (AlphaScreen, mean of runs) is > 100 µM (inactive); the IC50 under setting [1] is above 100 µM; the IC50 (FP, mean of runs) was > 95 µM (inactive); the IC50 under setting [2] was above 95 µM; the half-maximal inhibitory concentration (IC50) under setting [3] was above 95 µM.

Take `CCOC(=O)N1CCN(C(=O)c2cc3n(n2)C(C(F)(F)F)CC(c2ccc4c(c2)OCO4)N3)CC1` (stereo not given): the IC50 (AlphaScreen, mean of runs) is > 100 µM (inactive); the concentration for half-maximal inhibition (IC50) under setting [1] was above 100 µM; the IC50 (FP, mean of runs) is > 95 µM (inactive); the half-maximal inhibitory concentration (IC50) under setting [2] was above 95 µM; the IC50 under setting [3] is above 95 µM.

Turning to `Cc1nnc(NC(=O)c2ccccc2C(=O)O)s1`, the concentration for half-maximal inhibition (IC50) (AlphaScreen, mean of runs) was 16.6 µM; the IC50 under setting [1] is 16.6 µM; the IC50 (FP, mean of runs) was > 95 µM (inactive); the IC50 under setting [2] is above 95 µM; the IC50 under setting [3] is above 95 µM.

In the case of `CC1(C)CN=C(Nc2ccc(F)c(Cl)c2)S1`, the IC50 by setting is: (AlphaScreen, mean of runs) 18.9 µM; under setting [1], 18.9 µM; (FP, mean of runs) > 95 µM (inactive); under setting [2], above 95 µM; under setting [3], above 95 µM.

Consider `c1ccc2c3n(nc2c1)CCCO3`, for which the IC50 runs as follows: (AlphaScreen, mean of runs) > 100 µM (inactive); under setting [1], above 100 µM; (FP, mean of runs) > 95 µM (inactive); under setting [2], above 95 µM; under setting [3], above 95 µM.

In the case of `CCc1ccc(NS(=O)(=O)c2c(C(=O)N3CCCCCC3)c(C)n(C)c2C)cc1`, the IC50 (AlphaScreen, mean of runs) is > 100 µM (inactive); the half-inhibitory concentration (IC50) under setting [1] was above 100 µM; the IC50 (FP, mean of runs) is > 95 µM (inactive); the 50% inhibitory concentration (IC50) under setting [2] is above 95 µM; the concentration for half-maximal inhibition (IC50) under setting [3] is above 95 µM.

Consider `COc1ccc2c(c1)N(C)/C(=C1/SC(=NCc3ccccc3)N(c3ccccc3)C1=O)S2`, for which the IC50 is > 100 µM (inactive) (AlphaScreen, mean of runs); above 100 µM under setting [1]; > 95 µM (inactive) (FP, mean of runs); above 95 µM under setting [2]; above 95 µM under setting [3].

As to `O=C(NNC(=O)c1csc(N2CCOCC2)n1)c1ccc(=O)[nH]c1`, the IC50 is, setting by setting: (AlphaScreen, mean of runs) > 100 µM (inactive); under setting [1], above 100 µM; (FP, mean of runs) > 95 µM (inactive); under setting [2], above 95 µM; under setting [3], above 95 µM.

With `Cc1ccc(C(=O)NCCCc2ccccc2)c(C)c1`, the IC50 is > 100 µM (inactive) (AlphaScreen, mean of runs); above 100 µM under setting [1]; > 95 µM (inactive) (FP, mean of runs); above 95 µM under setting [2]; above 95 µM under setting [3].

On to `COc1ccc(-c2csc(NCCc3nc4cc(C(=O)NCCCO)ccc4n3Cc3ccc(C)cc3)n2)cc1`, for which the IC50 entry (AlphaScreen, mean of runs) was “inactive”. For the same compound, the concentration for half-maximal inhibition (IC50) under setting [1] stood at 27.6 µM; the IC50 (FP, mean of runs) is > 95 µM (inactive); the IC50 under setting [2] was above 95 µM; the IC50 under setting [3] was above 95 µM.

For `CCc1ccc(NC(=O)CCn2nc(C)c(S(=O)(=O)N3CCCCC3)c2C)cc1`, the IC50 runs as follows: (AlphaScreen, mean of runs) > 100 µM (inactive); under setting [1], above 100 µM; (FP, mean of runs) > 95 µM (inactive); under setting [2], above 95 µM; under setting [3], above 95 µM.

Consider `Fc1cnc(N2CCOCC2)nc1N1CCOCC1`, for which the IC50 is, setting by setting: (AlphaScreen, mean of runs) > 100 µM (inactive); under setting [1], above 100 µM; (FP, mean of runs) > 95 µM (inactive); under setting [2], above 95 µM; under setting [3], above 95 µM.

Turning to `CC1(C)S[C@@H]2[C@H](NC(=O)COc3ccccc3)C(=O)N2C1C(=O)OCc1ccccc1` (stereo not given in full), the IC50 is, setting by setting: (AlphaScreen, mean of runs) > 100 µM (inactive); under setting [1], above 100 µM; (FP, mean of runs) > 95 µM (inactive); under setting [2], above 95 µM; under setting [3], above 95 µM.

Consider `COc1cc(C(=O)OCC(=O)Nc2c(F)c(F)c(F)c(F)c2F)cc(OC)c1OC`, for which the IC50 by setting is: (AlphaScreen, mean of runs) > 100 µM (inactive); under setting [1], above 100 µM; (FP, mean of runs) > 95 µM (inactive); under setting [2], above 95 µM; under setting [3], above 95 µM.

For the compound `O=C(COC(=O)C1CC(=O)N(Cc2ccccc2)C1)Nc1ccccc1F` (stereo not given), for the setting “AlphaScreen, mean of runs”, the IC50 result is “inactive”. The IC50 was 44.6 µM under setting [1]; > 95 µM (inactive) (FP, mean of runs); above 95 µM under setting [2]; above 95 µM under setting [3].

As for `C=CCN(CC=C)C(=O)C1CC(=O)N(c2ccc(Br)cc2)C1` (stereo not given), the IC50 (AlphaScreen, mean of runs) was > 100 µM (inactive); the IC50 under setting [1] is above 100 µM; the IC50 (FP, mean of runs) was > 95 µM (inactive); the IC50 under setting [2] was above 95 µM; the IC50 under setting [3] was above 95 µM.

On to `CSc1ncccc1C(=O)OCC(=O)NC1CCCCC1`, for which the IC50 was > 100 µM (inactive) (AlphaScreen, mean of runs); above 100 µM under setting [1]; > 95 µM (inactive) (FP, mean of runs); above 95 µM under setting [2]; above 95 µM under setting [3].

`CCCNC(=S)Nc1cccc(C(F)(F)F)c1`: the IC50 (AlphaScreen, mean of runs) is > 100 µM (inactive); the concentration for half-maximal inhibition (IC50) under setting [1] is above 100 µM; the IC50 (FP, mean of runs) was > 95 µM (inactive); the IC50 under setting [2] was above 95 µM; the IC50 under setting [3] was above 95 µM.

For `NCCCC[C@H]1CN=C(N)N1CCC12CC3CC(CC(C3)C1)C2`, the IC50 entry (AlphaScreen, mean of runs) was “inactive”. Also, the 50% inhibitory concentration (IC50) was 50.2 µM under setting [1]; > 95 µM (inactive) (FP, mean of runs); above 95 µM under setting [2]; above 95 µM under setting [3].

Regarding `CC(=O)c1ccc(OCC(=O)Nc2nnc(C3CC3)s2)cc1`, the IC50 by setting is: (AlphaScreen, mean of runs) > 100 µM (inactive); under setting [1], above 100 µM; (FP, mean of runs) > 95 µM (inactive); under setting [2], above 95 µM; under setting [3], above 95 µM.

Regarding `O=C(NCc1ccccc1)c1cccc(S(=O)(=O)N2CCCCC2)c1`, the IC50 result (AlphaScreen, mean of runs) is “inactive”. The half-maximal inhibitory concentration (IC50) under setting [1] was determined as 39.8 µM; the IC50 (FP, mean of runs) is > 95 µM (inactive); the IC50 under setting [2] was above 95 µM; the IC50 under setting [3] was above 95 µM.

On to `CCN(Cc1ccncc1)C(=O)c1cc(COc2ccc(F)cc2F)on1`, for which the IC50 was > 100 µM (inactive) (AlphaScreen, mean of runs); above 100 µM under setting [1]; > 95 µM (inactive) (FP, mean of runs); above 95 µM under setting [2]; above 95 µM under setting [3].

In the case of `Cc1ccc(NC(=O)c2ccc3c(c2)OCCO3)cc1S(=O)(=O)Nc1cccc(Cl)c1`, the IC50 runs as follows: (AlphaScreen, mean of runs) > 100 µM (inactive); under setting [1], above 100 µM; (FP, mean of runs) > 95 µM (inactive); under setting [2], above 95 µM; under setting [3], above 95 µM.

Take `CCOc1c2ccc(C(=O)NCCc3cccs3)cc2nn1CC`: the IC50 (AlphaScreen, mean of runs) was > 100 µM (inactive); the IC50 under setting [1] is above 100 µM; the IC50 (FP, mean of runs) is > 95 µM (inactive); the half-inhibitory concentration (IC50) under setting [2] was above 95 µM; the IC50 under setting [3] was above 95 µM.

With `Cc1cccc(-c2noc(CSc3ccccc3)n2)c1`, the IC50 (AlphaScreen, mean of runs) was > 100 µM (inactive); the half-maximal inhibitory concentration (IC50) under setting [1] is above 100 µM; the IC50 (FP, mean of runs) is > 95 µM (inactive); the 50% inhibitory concentration (IC50) under setting [2] was above 95 µM; the IC50 under setting [3] is above 95 µM.

Take `CCCc1c(O)c2ccccc2[nH]c1=O`: the IC50 was > 100 µM (inactive) (AlphaScreen, mean of runs); above 100 µM under setting [1]; > 95 µM (inactive) (FP, mean of runs); above 95 µM under setting [2]; above 95 µM under setting [3].

On to `CCC1=C(OC(=O)N(CC)CC)N2C(=O)OC(=NCC(=O)OC)[C@]2(C)[C@H]2C1=CC[C@H]1C(=O)N(CC)C(=O)[C@H]12`, for which the IC50 is > 100 µM (inactive) (AlphaScreen, mean of runs); above 100 µM under setting [1]; > 95 µM (inactive) (FP, mean of runs); above 95 µM under setting [2]; above 95 µM under setting [3].

In general, IC50 refers to the concentration at which inhibition is half-maximal.
